According to patent publication US10450297B2, “Sulfonyl amide derivatives for the treatment of abnormal cell growth” (Pfizer, Inc., priority 2007, dated 2019):

Biological target: FAK kinase (catalytic construct FAK(410-689)) (Homo sapiens (Human), UniProt Q05397)
Experiment: FAKcd kinase ELISA (inhibition of poly-glu-tyr phosphorylation by FAK(410-689))
Format: biochemical
Details: 50 μM final ATP

Chain of FAK kinase (catalytic construct FAK(410-689)) (Q05397 410-689): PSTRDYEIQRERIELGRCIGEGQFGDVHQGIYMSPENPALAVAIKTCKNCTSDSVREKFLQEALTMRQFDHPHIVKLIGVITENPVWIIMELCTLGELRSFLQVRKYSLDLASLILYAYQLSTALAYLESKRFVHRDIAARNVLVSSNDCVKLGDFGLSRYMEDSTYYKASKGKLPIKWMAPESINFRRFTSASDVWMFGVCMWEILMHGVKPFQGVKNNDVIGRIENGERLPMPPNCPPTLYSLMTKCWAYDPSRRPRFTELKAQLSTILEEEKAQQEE

| IC50 [nM] | SMILES |
| --- | --- |
| 4.33 | CN(C)CCN(C)C(=O)c1cccc(Nc2ncc(C(F)(F)F)c(NCc3cccnc3N(C)S(C)(=O)=O)n2)c1 [Compound 137, N-[2-(dimethylamino)ethyl]-N-methyl-3-({4-[({2-[methyl(methylsulfonyl)amino]pyridin-3-yl}methyl)amino)-5-(trifluoromethyl)pyrimidin-2-yl}amino)benzamide] |
| 1.91 | CN(c1ncccc1CNc1nc(Nc2cccc(C(=O)NCc3ccccn3)c2)ncc1C(F)(F)F)S(C)(=O)=O [Compound 139, 3-({4-[({2-[methyl(methylsulfonyl)amino]pyridin-3-yl}methyl)amino]-5-(trifluoromethyl)pyrimidin-2-yl}amino)-N-(pyridin-2-ylmethyl)benzamide] |
| 0.84 | CN(c1ncccc1CNc1nc(Nc2cccc(C(=O)NCC3(C)COC3)c2)ncc1C(F)(F)F)S(C)(=O)=O [Compound 141, 3-({4-[({2-[methyl(methylsulfonyl)amino]pyridin-3-yl}methyl)amino]-5-(trifluoromethyl)pyrimidin-2-yl}amino)-N-[(3-methyloxetan-3-yl)methyl]benzamide] |
| 2.4 | C[C@H]1COCCN1C(=O)c1cccc(Nc2ncc(C(F)(F)F)c(NCc3cccnc3N(C)S(C)(=O)=O)n2)c1 [Compound 143, N-methyl-N-{3-[({2-[(3-{[(3S)-3-methylmorpholin-4-yl]carbonyl}phenyl)amino]-5-(trifluoromethyl)pyrimidin-4-yl}amino)methyl]pyridin-2-yl}methanesulfonamide] |
| 2.54 | CN(C)CCCNC(=O)c1cccc(Nc2ncc(C(F)(F)F)c(NCc3cccnc3N(C)S(C)(=O)=O)n2)c1 [Compound 145, N-[3-(dimethylamino)propyl]-3-({4-(({2-[methyl(methylsulfonyl)amino]pyridin-3-yl}methyl)amino]-5-(trifluoromethyl)pyrimidin-2-yl}amino)benzamide] |
| 4.74 | CN(c1ncccc1CNc1nc(Nc2cccc(C(=O)N3CCCC3CO)c2)ncc1C(F)(F)F)S(C)(=O)=O (stereo not shown) [Compound 147, N-{3-[({2-[(3-{[2-(hydroxymethyl)pyrrolidin-1-yl]carbonyl}phenyl)amino]-5-(trifluoromethyl)pyrimidin-4-yl}amino)methyl]pyridin-2-yl}-N-methylmethane-sulfonamide] |
| 1.51 | COCCCNC(=O)c1cccc(Nc2ncc(C(F)(F)F)c(NCc3cccnc3N(C)S(C)(=O)=O)n2)c1 [Compound 149, N-(3-methoxypropyl)-3-({4-[({2-[methyl(methylsulfonyl)amino]pyridin-3-yl}methyl)amino]-5-(trifluoromethyl)pyrimidin-2-yl}amino)benzamide] |
| 5.24 | CC(NC(=O)c1cccc(Nc2ncc(C(F)(F)F)c(NCc3cccnc3N(C)S(C)(=O)=O)n2)c1)C1CC1 (stereo not shown) [Compound 151, N-(1-cyclopropylethyl)-3-({4-[({2-[methyl(methylsulfonyl)-amino]pyridin-3-yl}methyl)amino]-5-(trifluoromethyl)pyrimidin-2-yl}amino)benzamide] |
| 3.35 | CN(c1ncccc1CNc1nc(Nc2cccc(C(=O)N3C[C@@H](F)[C@H](F)C3)c2)ncc1C(F)(F)F)S(C)(=O)=O [Compound 153, N-{3-[({2-[(3-{[(3R,4R)-3,4-difluoropyrrolidin-1-yl]carbonyl}phenyl)amino)-5-(trifluoromethyl)pyrimidin-4-yl}amino)methyl]pyridin-2-yl}-N-methylmethane-sulfonamide] |
| 9.75 | CC1CCCN1C(=O)c1cccc(Nc2ncc(C(F)(F)F)c(NCc3cccnc3N(C)S(C)(=O)=O)n2)c1 (stereo not shown) [Compound 155, N-methyl-N-[3-({[2-({3-[(2-methylpyrrolidin-1-yl)carbonyl]phenyl}amino)-5-(trifluoromethyl)pyrimidin-4-yl]amino}methyl)pyridin-2-yl]methanesulfonamide] |
| 4.24 | CN(c1ncccc1CNc1nc(Nc2cccc(C(=O)N3CC[C@H](O)C3)c2)ncc1C(F)(F)F)S(C)(=O)=O [Compound 157, N-{3-[({2-[(3-{[(3S)-3-hydroxypyrrolidin-1-yl]carbonyl}phenyl)amino]-5-(trifluoromethyl)pyrimidin-4-yl}amino)methyl]pyridin-2-yl}-N-methylmethane-sulfonamide] |
| 6.14 | CN(c1ncccc1CNc1nc(Nc2cccc(C(=O)N3CCC[C@H](O)C3)c2)ncc1C(F)(F)F)S(C)(=O)=O [Compound 159, N-{3-[({2-[(3-{[(3S)-3-hydroxypiperidin-1-yl]carbonyl}phenyl)amino]-5-(trifluoromethyl)pyrimidin-4-yl}amino)methyl]pyridin-2-yl}-N-methylmethane-sulfonamide] |
| 3.74 | CC(C)[C@H](CO)NC(=O)c1cccc(Nc2ncc(C(F)(F)F)c(NCc3cccnc3N(C)S(C)(=O)=O)n2)c1 [Compound 161, N-[(1R)-1-(hydroxymethyl)-2-methylpropyl]-3-({4-(({2-[methyl(methylsulfonyl)amino]pyridin-3-yl}methyl)amino]-5-(trifluoromethyl)pyrimidin-2-yl}amino)benzamide] |
| 5.1 | CN(c1ncccc1CNc1nc(Nc2cccc(C(=O)NC3CCCC3)c2)ncc1C(F)(F)F)S(C)(=O)=O [Compound 163, N-cyclopentyl-3-({4-[({2-[methyl(methylsulfonyl)amino]pyridin-3-yl}methyl)amino]-5-(trifluoromethyl)pyrimidin-2-yl}amino)benzamide] |
| 4.93 | CN(C)C1CN(C(=O)c2cccc(Nc3ncc(C(F)(F)F)c(NCc4cccnc4N(C)S(C)(=O)=O)n3)c2)C1 [Compound 165, N-{3-[({2-[(3-{[3-(dimethylamino)azetidin-1-yl]carbonyl}phenyl)amino]-5-(trifluoromethyl)pyrimidin-4-yl}amino)methyl]pyridin-2-yl}-N-rnethylmethane-sulfonamide] |
| 3.44 | CC(=O)NCCNC(=O)c1cccc(Nc2ncc(C(F)(F)F)c(NCc3cccnc3N(C)S(C)(=O)=O)n2)c1 [Compound 167, N-[2-(acetylamino)ethyl]-3-({4-[({2-[methyl(methylsulfonyl)amino]pyridin-3-yl}methyl)amino]-5-(trifluoromethyl)pyrimidin-2-yl}amino)benzamide] |
| 2.47 | CC[C@H](CO)NC(=O)c1cccc(Nc2ncc(C(F)(F)F)c(NCc3cccnc3N(C)S(C)(=O)=O)n2)c1 [Compound 169, N-[(1R)-1-(hydroxymethyl)propyl]-3-({4-(({2-[methyl(methylsulfonyl)amino]pyridin-3-yl}methyl)amino]-5-(trifluoromethyl)pyrimidin-2-yl}amino)benzamide] |
| 7.91 | CN(c1ncccc1CNc1nc(Nc2cccc(C(=O)N3CCCCC3)c2)ncc1C(F)(F)F)S(C)(=O)=O [Compound 171, N-methyl-N-[3-({[2-{[3-(piperidin-1-ylcarbonyl)phenyl]amino}-5-(trifluoromethyl)pyrimidin-4-yl]amino}methyl)pyridin-2-yl]methanesulfonamide] |
| 0.96 | CN1CCC(NC(=O)c2cccc(Nc3ncc(C(F)(F)F)c(NCc4cccnc4N(C)S(C)(=O)=O)n3)c2)CC1 [Compound 173, 3-({4-[({2-[methyl(methylsulfonyl)amino]pyridin-3-yl}methyl)amino]-5-(trifluoromethyl)pyrimidin-2-yl}amino)-N-(1-methylpiperidin-4-yl)benzamide] |
